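Growth conditions: 96-well plates. Treatment: test compound, 48 hours, 5 concentrations. Analysis: linear interpolation between bracketing concentrations; unreached endpoints set to highest concentration. GI50 is the concentration that inhibits growth by half.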 The source made the active and inactive calls. Rule as the data show it: active = GI50 up to about 1.1 µM and inactive = higher.
What was measured:
Experiment in all cases: NCI tumour cell line growth inhibition, 48 h
SF-295 = test system: SF-295
ACHN = test system: ACHN
UACC-257 = test system: UACC-257
MDA-N = test system: MDA-N
BT-549 = test system: BT-549
SK-OV-3 = test system: SK-OV-3
NCI/ADR-RES = test system: NCI/ADR-RES
EKVX = test system: EKVX
SK-MEL-2 = test system: SK-MEL-2
NCI-H460 = test system: NCI-H460
TK-10 = test system: TK-10
CCRF-CEM = test system: CCRF-CEM
HCT-116 = test system: HCT-116
SNB-75 = test system: SNB-75
T47D = test system: T47D
MDA-MB-231 = test system: MDA-MB-231
HOP-62 = test system: HOP-62
M14 = test system: M14
LOX IMVI = test system: LOX IMVI
786-0 = test system: 786-0
UO-31 = test system: UO-31
SK-MEL-28 = test system: SK-MEL-28
A498 = test system: A498
DU-145 = test system: DU-145
HCT-15 = test system: HCT-15
OVCAR-8 = test system: OVCAR-8
KM12 = test system: KM12
SF-268 = test system: SF-268
RXF 393 = test system: RXF 393
PC-3 = test system: PC-3
SNB-19 = test system: SNB-19
HOP-92 = test system: HOP-92
MDA-MB-435 = test system: MDA-MB-435
HT-29 = test system: HT-29
IGROV-1 = test system: IGROV-1
MCF7 = test system: MCF7
SN12C = test system: SN12C
OVCAR-4 = test system: OVCAR-4
COLO 205 = test system: COLO 205
Hs-578T = test system: Hs-578T
CAKI-1 = test system: CAKI-1
Malme-3M = test system: Malme-3M
A549 = test system: A549
SK-MEL-5 = test system: SK-MEL-5
OVCAR-3 = test system: OVCAR-3
K562 = test system: K562
U-251 = test system: U-251
OVCAR-5 = test system: OVCAR-5
HCC 2998 = test system: HCC 2998
MOLT-4 = test system: MOLT-4
SW-620 = test system: SW-620
HL-60 = test system: HL-60
SR = test system: SR
RPMI-8226 = test system: RPMI-8226
SF-539 = test system: SF-539
UACC-62 = test system: UACC-62
NCI-H226 = test system: NCI-H226
NCI-H23 = test system: NCI-H23
NCI-H522 = test system: NCI-H522

Cc1c(F)c(N)c2c(=O)cc(-c3ccc(NC(=O)[C@@H](N)CCCCN)c(F)c3)oc2c1F
GI50 (SF-295): 15.6 µM (inactive)
GI50 (ACHN): 12.9 µM (inactive)
GI50 (UACC-257): 0.242 µM (active)
GI50 (MDA-N): 7.26 µM (inactive)
GI50 (BT-549): 24.4 µM (inactive)
GI50 (SK-OV-3): 15.1 µM (inactive)
GI50 (NCI/ADR-RES): 21.4 µM (inactive)
GI50 (EKVX): 6.68 µM (inactive)
GI50 (SK-MEL-2): 21.3 µM (inactive)
GI50 (NCI-H460): 0.101 µM (active)
GI50 (TK-10): 0.134 µM (active)
GI50 (CCRF-CEM): 3.52 µM (inactive)
GI50 (HCT-116): 2.88 µM (inactive)
GI50 (SNB-75): 4.68 µM (inactive)
GI50 (T47D): 0.159 µM (active)
GI50 (MDA-MB-231): 13.2 µM (inactive)
GI50 (HOP-62): 7.59 µM (inactive)
GI50 (M14): 16.4 µM (inactive)
GI50 (LOX IMVI): 8.83 µM (inactive)
GI50 (786-0): 9.31 µM (inactive)
GI50 (UO-31): 7.83 µM (inactive)
GI50 (SK-MEL-28): 13.2 µM (inactive)
GI50 (A498): 0.0537 µM (active)
GI50 (DU-145): 13.7 µM (inactive)
GI50 (HCT-15): 11.2 µM
GI50 (OVCAR-8): 11 µM (inactive)
GI50 (KM12): 9.33 µM (inactive)
GI50 (SF-268): 11.9 µM (inactive)
GI50 (RXF 393): 18.2 µM (inactive)
GI50 (PC-3): 15.3 µM (inactive)
GI50 (SNB-19): 18.4 µM (inactive)
GI50 (HOP-92): 18.6 µM (inactive)
GI50 (MDA-MB-435): 7.21 µM (inactive)
GI50 (HT-29): 13.1 µM (inactive)
GI50 (IGROV-1): 0.0418 µM (active)
GI50 (MCF7): 0.033 µM (active)
GI50 (SN12C): 14.9 µM (inactive)

O=C(OCCN=c1c2ccccc2ccc2ccccc12)c1ccccc1
GI50 (SF-295): > 100 µM (inactive)
GI50 (OVCAR-4): 42.3 µM (inactive)
GI50 (ACHN): 97.1 µM (inactive)
GI50 (UACC-257): > 100 µM (inactive)
GI50 (MDA-N): > 100 µM (inactive)
GI50 (COLO 205): 92.5 µM (inactive)
GI50 (BT-549): 42.2 µM (inactive)
GI50 (SK-OV-3): > 100 µM (inactive)
GI50 (NCI/ADR-RES): 96.4 µM (inactive)
GI50 (EKVX): 29.2 µM (inactive)
GI50 (SK-MEL-2): > 100 µM (inactive)
GI50 (NCI-H460): 63.2 µM (inactive)
GI50 (TK-10): > 100 µM (inactive)
GI50 (Hs-578T): 40.3 µM (inactive)
GI50 (CCRF-CEM): 40.8 µM (inactive)
GI50 (HCT-116): 42.2 µM (inactive)
GI50 (CAKI-1): 83.4 µM (inactive)
GI50 (Malme-3M): > 100 µM (inactive)
GI50 (SNB-75): > 100 µM (inactive)
GI50 (A549): 86.5 µM (inactive)
GI50 (MDA-MB-231): 91.8 µM (inactive)
GI50 (HOP-62): 64.6 µM (inactive)
GI50 (M14): > 100 µM (inactive)
GI50 (SK-MEL-5): 45 µM (inactive)
GI50 (OVCAR-3): > 100 µM (inactive)
GI50 (LOX IMVI): 72.1 µM (inactive)
GI50 (786-0): 87.7 µM (inactive)
GI50 (K562): 38 µM (inactive)
GI50 (UO-31): 56 µM (inactive)
GI50 (SK-MEL-28): > 100 µM (inactive)
GI50 (U-251): 56.4 µM (inactive)
GI50 (OVCAR-5): > 100 µM (inactive)
GI50 (DU-145): > 100 µM (inactive)
GI50 (HCT-15): 63.4 µM
GI50 (HCC 2998): 72.8 µM (inactive)
GI50 (MOLT-4): > 100 µM (inactive)
GI50 (OVCAR-8): 78.7 µM (inactive)
GI50 (KM12): 86.5 µM (inactive)
GI50 (SF-268): > 100 µM (inactive)
GI50 (RXF 393): > 100 µM (inactive)
GI50 (SW-620): 74 µM (inactive)
GI50 (HL-60): 27.3 µM (inactive)
GI50 (PC-3): 67.3 µM (inactive)
GI50 (SR): > 100 µM (inactive)
GI50 (RPMI-8226): > 100 µM (inactive)
GI50 (SNB-19): 40.5 µM (inactive)
GI50 (HOP-92): 75 µM (inactive)
GI50 (SF-539): 50.1 µM (inactive)
GI50 (UACC-62): 75 µM (inactive)
GI50 (MDA-MB-435): > 100 µM (inactive)
GI50 (NCI-H226): > 100 µM (inactive)
GI50 (HT-29): 64 µM (inactive)
GI50 (IGROV-1): 72.1 µM (inactive)
GI50 (MCF7): > 100 µM (inactive)
GI50 (SN12C): 64.1 µM (inactive)
GI50 (NCI-H23): > 100 µM (inactive)

Clc1ccc(OCc2nnc(CCCCCCCCc3nnc(COc4ccc(Cl)cc4)o3)o2)cc1
GI50 (SF-295): > 100 µM (inactive)
GI50 (OVCAR-4): > 100 µM (inactive)
GI50 (ACHN): > 100 µM (inactive)
GI50 (UACC-257): > 100 µM (inactive)
GI50 (MDA-N): > 100 µM (inactive)
GI50 (COLO 205): > 100 µM (inactive)
GI50 (BT-549): > 100 µM (inactive)
GI50 (SK-OV-3): 57.8 µM (inactive)
GI50 (NCI/ADR-RES): > 100 µM (inactive)
GI50 (EKVX): > 100 µM (inactive)
GI50 (SK-MEL-2): > 100 µM (inactive)
GI50 (NCI-H460): > 100 µM (inactive)
GI50 (TK-10): > 100 µM (inactive)
GI50 (HCT-116): 10.5 µM (inactive)
GI50 (CAKI-1): 39.7 µM (inactive)
GI50 (Malme-3M): 3.58 µM (inactive)
GI50 (SNB-75): 68.2 µM (inactive)
GI50 (A549): 72.1 µM (inactive)
GI50 (MDA-MB-231): 48 µM (inactive)
GI50 (M14): 89.7 µM (inactive)
GI50 (SK-MEL-5): > 100 µM (inactive)
GI50 (NCI-H522): 31.8 µM (inactive)
GI50 (OVCAR-3): > 100 µM (inactive)
GI50 (786-0): 31.8 µM (inactive)
GI50 (K562): 48.1 µM (inactive)
GI50 (UO-31): > 100 µM (inactive)
GI50 (SK-MEL-28): > 100 µM (inactive)
GI50 (U-251): 29.4 µM (inactive)
GI50 (OVCAR-5): > 100 µM (inactive)
GI50 (A498): > 100 µM (inactive)
GI50 (DU-145): 68.7 µM (inactive)
GI50 (HCT-15): > 100 µM
GI50 (HCC 2998): > 100 µM (inactive)
GI50 (MOLT-4): 14.8 µM (inactive)
GI50 (KM12): > 100 µM (inactive)
GI50 (SF-268): 32.3 µM (inactive)
GI50 (RXF 393): 47.3 µM (inactive)
GI50 (SW-620): > 100 µM (inactive)
GI50 (PC-3): > 100 µM (inactive)
GI50 (RPMI-8226): > 100 µM (inactive)
GI50 (SNB-19): 34.1 µM (inactive)
GI50 (HOP-92): 31.7 µM (inactive)
GI50 (UACC-62): > 100 µM (inactive)
GI50 (MDA-MB-435): > 100 µM (inactive)
GI50 (NCI-H226): > 100 µM (inactive)
GI50 (HT-29): > 100 µM (inactive)
GI50 (MCF7): 28.2 µM (inactive)
GI50 (SN12C): 43.8 µM (inactive)
GI50 (NCI-H23): 79.3 µM (inactive)

Reference: ChEMBL document CHEMBL1201862, “PubChem BioAssay data set” (2004)
